The values that follow come from publication PMC6751184, “Heme and hemoglobin utilization by Mycobacterium tuberculosis” (Nature Communications, 2019).

This assay addresses DppA (Rv3666c), substrate-binding protein of the Dpp transporter (Mycobacterium tuberculosis, UniProt I6X811, W442A).

For the compound `C=CC1=C(C)C2=Cc3c(C=C)c(C)c4[n]3[Fe]([Cl])[n]3c(c(C)c(CCC(=O)O)c3=CC3=NC(=C4)C(C)=C3CCC(=O)O)=CC1=N2` [hemin], the “SPR; binds but dissociates quickly, reduced affinity” value is given as “Surface plasmon resonance showed that heme bound to the DppAW442A protein but dissociated quickly”.
